PubChem BioAssay (NCI)
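Results reflect a 48-hour exposure of cells in 96-well plates to compound at five concentrations. GI50 = concentration required for 50% inhibition of growth. Definition used: TGI = concentration required for complete inhibition of growth.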

Legend:
Test in all cases: NCI tumour cell line growth inhibition, 48 h; in the data active = GI50 below about 0.43 µM; inactive = the rest
786-0 renal = tested on: 786-0 renal
A498 renal = tested on: A498 renal
A549 NSCLC = tested on: A549 NSCLC
ACHN renal = tested on: ACHN renal
CAKI-1 renal = tested on: CAKI-1 renal
COLO 205 colon = tested on: COLO 205 colon
DMS 114 small cell lung = tested on: DMS 114 small cell lung
DMS 273 small cell lung = tested on: DMS 273 small cell lung
EKVX NSCLC = tested on: EKVX NSCLC
HCC-2998 colon = tested on: HCC-2998 colon
HCT-116 colon = tested on: HCT-116 colon
HCT-15 colon = tested on: HCT-15 colon
HL-60(TB) leukemia = tested on: HL-60(TB) leukemia
HOP-62 NSCLC = tested on: HOP-62 NSCLC
HT29 colon = tested on: HT29 colon
IGROV1 ovarian = tested on: IGROV1 ovarian
K-562 leukemia = tested on: K-562 leukemia
KM12 colon = tested on: KM12 colon
KM20L2 colon = tested on: KM20L2 colon
LOX IMVI melanoma = tested on: LOX IMVI melanoma
M14 melanoma = tested on: M14 melanoma
M19-MEL melanoma = tested on: M19-MEL melanoma
MALME-3M melanoma = tested on: MALME-3M melanoma
MOLT-4 leukemia = tested on: MOLT-4 leukemia
NCI-H226 lung = tested on: NCI-H226 lung
NCI-H23 lung = tested on: NCI-H23 lung
NCI-H460 lung = tested on: NCI-H460 lung
OVCAR-3 ovarian = tested on: OVCAR-3 ovarian
OVCAR-4 ovarian = tested on: OVCAR-4 ovarian
OVCAR-5 ovarian = tested on: OVCAR-5 ovarian
OVCAR-8 ovarian = tested on: OVCAR-8 ovarian
RPMI-8226 leukemia = tested on: RPMI-8226 leukemia
RXF 393 renal = tested on: RXF 393 renal
SF-268 CNS = tested on: SF-268 CNS
SF-295 CNS = tested on: SF-295 CNS
SF-539 CNS = tested on: SF-539 CNS
SK-MEL-2 melanoma = tested on: SK-MEL-2 melanoma
SK-MEL-28 melanoma = tested on: SK-MEL-28 melanoma
SK-MEL-5 melanoma = tested on: SK-MEL-5 melanoma
SK-OV-3 ovarian = tested on: SK-OV-3 ovarian
SN12C renal = tested on: SN12C renal
SNB-75 CNS = tested on: SNB-75 CNS
SNB-78 CNS = tested on: SNB-78 CNS
SR leukemia = tested on: SR leukemia
SW-620 colon = tested on: SW-620 colon
TK-10 renal = tested on: TK-10 renal
U251 CNS = tested on: U251 CNS
UACC-257 melanoma = tested on: UACC-257 melanoma
XF 498 CNS = tested on: XF 498 CNS
BT-549 breast = tested on: BT-549 breast
CCRF-CEM leukemia = tested on: CCRF-CEM leukemia
DU-145 prostate = tested on: DU-145 prostate
HOP-92 NSCLC = tested on: HOP-92 NSCLC
HS 578T breast = tested on: HS 578T breast
MCF7 breast = tested on: MCF7 breast
MDA-MB-231 breast = tested on: MDA-MB-231 breast
MDA-MB-435 = tested on: MDA-MB-435
MDA-N = tested on: MDA-N
NCI-H522 lung = tested on: NCI-H522 lung
NCI/ADR-RES ovarian = tested on: NCI/ADR-RES ovarian
PC-3 prostate = tested on: PC-3 prostate
SNB-19 CNS = tested on: SNB-19 CNS
T-47D breast = tested on: T-47D breast
UACC-62 melanoma = tested on: UACC-62 melanoma
UO-31 renal = tested on: UO-31 renal
DLD-1 colon = tested on: DLD-1 colon

Cc1ccc(C=NC23CC4CC(CC(C4)C2)C3)cc1
> 100 µM: TGI (786-0 renal) | TGI (A498 renal) | TGI (A549 NSCLC) | TGI (ACHN renal) | TGI (CAKI-1 renal) | TGI (COLO 205 colon) | TGI (DMS 114 small cell lung) | TGI (DMS 273 small cell lung) | TGI (EKVX NSCLC) | TGI (HCC-2998 colon) | TGI (HCT-116 colon) | TGI (HCT-15 colon) | TGI (HL-60(TB) leukemia) | TGI (HOP-62 NSCLC) | TGI (HT29 colon) | TGI (IGROV1 ovarian) | TGI (K-562 leukemia) | TGI (KM12 colon) | TGI (KM20L2 colon) | TGI (LOX IMVI melanoma) | TGI (M14 melanoma) | TGI (M19-MEL melanoma) | TGI (MALME-3M melanoma) | TGI (MOLT-4 leukemia) | TGI (NCI-H226 lung) | TGI (NCI-H23 lung) | TGI (NCI-H460 lung) | TGI (OVCAR-3 ovarian) | TGI (OVCAR-4 ovarian) | TGI (OVCAR-5 ovarian) | TGI (OVCAR-8 ovarian) | TGI (RPMI-8226 leukemia) | TGI (RXF 393 renal) | TGI (SF-268 CNS) | TGI (SF-295 CNS) | TGI (SF-539 CNS) | TGI (SK-MEL-2 melanoma) | TGI (SK-MEL-28 melanoma) | TGI (SK-MEL-5 melanoma) | TGI (SK-OV-3 ovarian) | TGI (SN12C renal) | TGI (SNB-75 CNS) | TGI (SNB-78 CNS) | TGI (SR leukemia) | TGI (SW-620 colon) | TGI (TK-10 renal) | TGI (U251 CNS) | TGI (UACC-257 melanoma) | TGI (XF 498 CNS)

COC1(c2cccs2)c2ccccc2C(OC)(c2cccs2)c2ccccc21 (configuration not stated)
83.4 µM: TGI (A498 renal)
19.8 µM: TGI (HS 578T breast)
> 100 µM: TGI (786-0 renal) | TGI (A549 NSCLC) | TGI (ACHN renal) | TGI (BT-549 breast) | TGI (CAKI-1 renal) | TGI (CCRF-CEM leukemia) | TGI (COLO 205 colon) | TGI (DU-145 prostate) | TGI (EKVX NSCLC) | TGI (HCC-2998 colon) | TGI (HCT-116 colon) | TGI (HCT-15 colon) | TGI (HL-60(TB) leukemia) | TGI (HOP-62 NSCLC) | TGI (HOP-92 NSCLC) | TGI (HT29 colon) | TGI (IGROV1 ovarian) | TGI (K-562 leukemia) | TGI (KM12 colon) | TGI (LOX IMVI melanoma) | TGI (M14 melanoma) | TGI (MALME-3M melanoma) | TGI (MCF7 breast) | TGI (MDA-MB-231 breast) | TGI (MDA-MB-435) | TGI (MDA-N) | TGI (MOLT-4 leukemia) | TGI (NCI-H226 lung) | TGI (NCI-H23 lung) | TGI (NCI-H460 lung) | TGI (NCI-H522 lung) | TGI (NCI/ADR-RES ovarian) | TGI (OVCAR-3 ovarian) | TGI (OVCAR-4 ovarian) | TGI (OVCAR-5 ovarian) | TGI (OVCAR-8 ovarian) | TGI (PC-3 prostate) | TGI (RPMI-8226 leukemia) | TGI (RXF 393 renal) | TGI (SF-268 CNS) | TGI (SF-295 CNS) | TGI (SF-539 CNS) | TGI (SK-MEL-2 melanoma) | TGI (SK-MEL-28 melanoma) | TGI (SK-MEL-5 melanoma) | TGI (SK-OV-3 ovarian) | TGI (SN12C renal) | TGI (SNB-19 CNS) | TGI (SNB-75 CNS) | TGI (SR leukemia) | TGI (SW-620 colon) | TGI (T-47D breast) | TGI (TK-10 renal) | TGI (U251 CNS) | TGI (UACC-257 melanoma) | TGI (UACC-62 melanoma) | TGI (UO-31 renal)

O=c1cccccc1[O-].O=c1cccccc1[O-].O=c1cccccc1[O-].[Ce+3]
63.2 µM: TGI (SNB-78 CNS)
96.9 µM: TGI (UACC-257 melanoma)
78.1 µM: TGI (SF-295 CNS)
38.8 µM: TGI (SK-MEL-5 melanoma)
72.3 µM: TGI (SK-OV-3 ovarian)
84.6 µM: TGI (UO-31 renal)
40.4 µM: TGI (RXF 393 renal) | TGI (UACC-62 melanoma)
> 100 µM: TGI (A498 renal) | TGI (A549 NSCLC) | TGI (CAKI-1 renal) | TGI (CCRF-CEM leukemia) | TGI (DLD-1 colon) | TGI (DMS 273 small cell lung) | TGI (EKVX NSCLC) | TGI (HCC-2998 colon) | TGI (HCT-15 colon) | TGI (HT29 colon) | TGI (K-562 leukemia) | TGI (KM12 colon) | TGI (KM20L2 colon) | TGI (LOX IMVI melanoma) | TGI (M14 melanoma) | TGI (MOLT-4 leukemia) | TGI (NCI-H226 lung) | TGI (NCI-H460 lung) | TGI (OVCAR-5 ovarian) | TGI (RPMI-8226 leukemia) | TGI (SN12C renal) | TGI (SNB-19 CNS) | TGI (SW-620 colon)
51.6 µM: TGI (SK-MEL-2 melanoma)
35.5 µM: TGI (OVCAR-3 ovarian)
52.4 µM: TGI (MALME-3M melanoma)
88.4 µM: TGI (IGROV1 ovarian)
65.2 µM: TGI (TK-10 renal)
44.1 µM: TGI (NCI-H522 lung)
89.9 µM: TGI (HOP-92 NSCLC)
inactive: GI50 (A498 renal) 30.8 µM | GI50 (DLD-1 colon) 16.7 µM | GI50 (DMS 273 small cell lung) 11.4 µM | GI50 (HOP-62 NSCLC) 17.4 µM | GI50 (KM20L2 colon) 24.1 µM | GI50 (SF-539 CNS) 14.8 µM | GI50 (SN12C renal) 25.7 µM | GI50 (SNB-78 CNS) 15.4 µM | GI50 (U251 CNS) 18.3 µM
86.1 µM: TGI (NCI-H23 lung)
96.3 µM: TGI (ACHN renal)
93.6 µM: TGI (U251 CNS)
76.7 µM: TGI (OVCAR-4 ovarian)
45.3 µM: TGI (HOP-62 NSCLC)
58.8 µM: TGI (SF-539 CNS)
55.2 µM: TGI (786-0 renal)
73.6 µM: TGI (OVCAR-8 ovarian)
54.3 µM: TGI (HCT-116 colon)
89 µM: TGI (HL-60(TB) leukemia)

CCOC(=O)C(=CN1CCNC1=S)C(=O)OCC
> 100 µM: TGI (786-0 renal) | TGI (A498 renal) | TGI (A549 NSCLC) | TGI (ACHN renal) | TGI (BT-549 breast) | TGI (CAKI-1 renal) | TGI (CCRF-CEM leukemia) | TGI (COLO 205 colon) | TGI (DU-145 prostate) | TGI (EKVX NSCLC) | TGI (HCC-2998 colon) | TGI (HCT-116 colon) | TGI (HCT-15 colon) | TGI (HL-60(TB) leukemia) | TGI (HOP-62 NSCLC) | TGI (HOP-92 NSCLC) | TGI (HS 578T breast) | TGI (HT29 colon) | TGI (IGROV1 ovarian) | TGI (K-562 leukemia) | TGI (KM12 colon) | TGI (LOX IMVI melanoma) | TGI (M14 melanoma) | TGI (MALME-3M melanoma) | TGI (MCF7 breast) | TGI (MDA-MB-231 breast) | TGI (MDA-MB-435) | TGI (MDA-N) | TGI (MOLT-4 leukemia) | TGI (NCI-H226 lung) | TGI (NCI-H23 lung) | TGI (NCI-H460 lung) | TGI (NCI-H522 lung) | TGI (NCI/ADR-RES ovarian) | TGI (OVCAR-4 ovarian) | TGI (OVCAR-5 ovarian) | TGI (OVCAR-8 ovarian) | TGI (PC-3 prostate) | TGI (RPMI-8226 leukemia) | TGI (RXF 393 renal) | TGI (SF-268 CNS) | TGI (SF-295 CNS) | TGI (SF-539 CNS) | TGI (SK-MEL-2 melanoma) | TGI (SK-MEL-28 melanoma) | TGI (SK-MEL-5 melanoma) | TGI (SK-OV-3 ovarian) | TGI (SN12C renal) | TGI (SNB-19 CNS) | TGI (SNB-75 CNS) | TGI (SR leukemia) | TGI (SW-620 colon) | TGI (T-47D breast) | TGI (TK-10 renal) | TGI (U251 CNS) | TGI (UACC-257 melanoma) | TGI (UACC-62 melanoma) | TGI (UO-31 renal)
inactive: GI50 (HOP-92 NSCLC) > 100 µM | GI50 (HS 578T breast) > 100 µM | GI50 (KM12 colon) > 100 µM | GI50 (SF-268 CNS) > 100 µM | GI50 (SNB-19 CNS) > 100 µM | GI50 (SNB-75 CNS) > 100 µM | GI50 (TK-10 renal) > 100 µM | GI50 (UO-31 renal) > 100 µM
> 32.4 µM: TGI (OVCAR-3 ovarian)
